Reference: article PMC12390684 (Viruses, 2025)

target: IN-GCN2 interaction (6xHis-IN / GST-GCN2) (UniProt P04585+Q9P2K8); experiment: biochemical; type: binding, HIV-1 IN; human GCN2; conditions: at 33 µM, compared to DMSO
Sequence (Q9P2K8 192-1024, other chains not shown): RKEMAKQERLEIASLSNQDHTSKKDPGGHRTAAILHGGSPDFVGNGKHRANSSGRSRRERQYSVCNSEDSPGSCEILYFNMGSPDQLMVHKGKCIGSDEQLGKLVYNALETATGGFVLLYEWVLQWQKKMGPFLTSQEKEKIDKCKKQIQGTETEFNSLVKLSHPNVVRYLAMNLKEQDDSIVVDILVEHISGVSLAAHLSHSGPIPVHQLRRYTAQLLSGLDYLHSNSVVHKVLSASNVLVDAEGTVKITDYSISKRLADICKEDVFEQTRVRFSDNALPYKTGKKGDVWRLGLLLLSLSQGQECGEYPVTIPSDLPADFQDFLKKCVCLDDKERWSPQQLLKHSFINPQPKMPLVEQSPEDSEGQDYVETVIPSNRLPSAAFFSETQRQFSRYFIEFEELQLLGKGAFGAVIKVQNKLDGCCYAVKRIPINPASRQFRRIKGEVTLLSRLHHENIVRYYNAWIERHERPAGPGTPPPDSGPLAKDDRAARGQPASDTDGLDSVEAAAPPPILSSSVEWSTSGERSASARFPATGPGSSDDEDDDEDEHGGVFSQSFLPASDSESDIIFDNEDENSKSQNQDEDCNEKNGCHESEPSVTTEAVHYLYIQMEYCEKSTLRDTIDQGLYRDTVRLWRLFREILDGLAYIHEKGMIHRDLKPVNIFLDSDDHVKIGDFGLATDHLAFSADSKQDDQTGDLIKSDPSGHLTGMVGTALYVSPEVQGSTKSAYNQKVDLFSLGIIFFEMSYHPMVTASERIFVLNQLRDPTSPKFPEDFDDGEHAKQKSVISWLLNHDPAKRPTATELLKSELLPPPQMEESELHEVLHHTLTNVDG

Structure (SMILES)	AlphaLISA signal in dose-response [%]
COc1ccc2c(=O)oc3c(OC)cc(CCN(C)C)c4c(=O)oc1c2c34 [NSC76022]	120

same assay, conditions: at 100 µM, compared to DMSO

Structure (SMILES)	AlphaLISA signal in dose-response [%]
COc1ccc2c(=O)oc3c(OC)cc(CCN(C)C)c4c(=O)oc1c2c34 [NSC76022]	200

same assay, conditions: screen, single dose 100 µM, single replicate; residual AlphaLISA signal normalized to DMSO control

Structure (SMILES)	IN-GCN2 interaction (%)
O=C(O)/C=C/CC[C@@H]1SC[C@@H]2NC(=O)N[C@@H]21 [NSC127473]	109.13
C=C(NC(=O)C(=C)NC(=O)c1csc(C2=NC3c4csc(n4)C4NC(=O)c5csc(n5)C(C(C)(O)C(C)O)NC(=O)C5CSC(=N5)/C(=C\C)NC(=O)C(C(C)O)NC(=O)c5csc(n5)C3(CC2)NC(=O)C(C)NC(=O)C(=C)NC(=O)C(C)NC(=O)C(C(C)CC)NC2C=Cc3c(C(C)O)cc(nc3C2O)C(=O)OC4C)n1)C(N)=O (stereo not drawn) [NSC170365]	53.53
C[C@@H]1C[C@H]2OC(=O)[C@@]3(C)CCC[C@@](C)([C@@H]23)[C@@]1(O)CCc1ccoc1 [NSC36693]	92.00
CC1(C)CCC2=C(O1)C(=O)c1ccccc1C2=O [NSC26327]	99.02
CC(=O)O[C@@H]1C[C@H]2C(C)(C)C(=O)C=C[C@]2(C)[C@H]2CC[C@@]3(C)[C@H](c4ccoc4)OC(=O)[C@H]4O[C@]43[C@@]21C [NSC113497]	59.74
COc1cc(/C=C/C(=O)CC(=O)/C=C/c2ccc(O)c(OC)c2)ccc1O [NSC32982]	15.01
COc1c2c(cc(O)c1C(C)=O)OC(C)(C)C=C2 [NSC36294]	109.95
COc1ccc(/C=C/C(=O)c2ccccc2)cc1 [NSC11866]	81.82
C/C=C\C(C)=C\[C@H](C)C(=O)C[C@H](O)CC1CC(=O)NC(=O)C1 [NSC248958]	116.00
O=c1cc(-c2ccccc2)oc2ccccc12 [NSC19028]	58.68
COc1ccc2c(c1OC)C(=O)O[C@@H]2[C@H]1c2c(cc3c(c2OC)OCO3)CCN1C [NSC5366]	132.74
C[N+]1([O-])[C@@H]2CC[C@H]1CC(OC(=O)C(CO)c1ccccc1)C2 (stereo partly drawn) [NSC72861]	92.58
CC(=O)O[C@H]1C[C@]2(O)[C@@H]3CC[C@@H]4C[C@@H](O)CC[C@]4(C)[C@H]3CC[C@]2(C)[C@H]1C1=CC(=O)OC1 [NSC148790]	114.66
COc1cc(/C=N\O)nc(-c2ccccn2)c1 [NSC114341]	45.21
COc1ccc2c3c([nH]c2c1)[C@H](C=C(C)C)N1C(=O)[C@@H]2CCCN2C(=O)[C@@H]1C3 [NSC719655]	66.56
COC1=CC(=O)C(C2CC(=O)c3c(O)cc(O)cc3O2)=CC1=O (stereo not drawn) [NSC169517]	98.58
CC1=CC2=C(C=O)C(=O)[C@](C)(O)[C@@H](O)C2=CO1 [NSC159632]	82.72
COC(=O)/C(=C1/OC(=O)C(c2ccccc2)=C1O)c1ccccc1 [NSC5897]	95.33
CCCCCCCCCCCCCCCCCCO [NSC5379]	92.43
O=C(O)c1ccc(O)c(O)c1 [NSC16631]	69.74
COc1cc2c(cc1O)[C@@H](Cc1ccc(Oc3cc(C[C@H]4c5cc(O)c(OC)cc5CCN4C)ccc3OC)cc1)N(C)CC2 [NSC785183]	47.22
CN(N=O)C(=O)N[C@@H](C=O)[C@@H](O)[C@H](O)[C@H](O)CO [NSC85998]	75.18
C[C@H]1CCC/C=C/[C@@H]2C[C@H](O)C[C@H]2[C@H](O)/C=C/C(=O)O1 [NSC89671]	129.13
O=c1[nH]cnc2ccccc12 [NSC5863]	93.27
CC(=O)Oc1ccc2ccc(=O)oc2c1OC(C)=O [NSC301683]	152.96
CO[C@@H]1C[C@](C)(O)Cc2cc3c(c(O)c21)C(=O)c1c(O)cc2c(c1C3=O)O[C@@H]1O[C@@]2(C)[C@H](O)[C@@H](N(C)C)[C@@H]1O [NSC269148]	113.29

same assay, conditions: screen, single dose 100 µM, single replicate; residual AlphaLISA signal normalized to DMSO control; listed as 785170

Structure (SMILES)	IN-GCN2 interaction (%)
COc1cc2c3c(c1O)-c1ccccc1C[C@@H]3N(C)CC2 [NSC785170]	99.49

same assay, conditions: screen, single dose 100 µM, single replicate; residual AlphaLISA signal normalized to DMSO control; listed as 785181

Structure (SMILES)	IN-GCN2 interaction (%)
COc1c(O)ccc2c1-c1c3c(cc4c1[C@H](C2)N(C)CC4)OCO3 [NSC785181]	54.07
